Molecules are shown by their SMILES.

Assay type in all cases: functional, cell-based
Experiment [1] deals with T1, C-C chemokine receptor type 5 (Homo sapiens, UniProt P51681). The experiment can be described thus: Inhibition of MIP-1beta ligand of chemokine receptor 5 induced calcium signal in U-87-CCR5 cells by calcium mobilization assay.
Experiment [2] deals with T1, C-C chemokine receptor type 5. The experiment can be described thus: Inhibition of 50% of RANTES co-receptor of chemokine receptor 5 induced calcium signal in U-87-CCR5 cells by calcium mobilization assay.
Experiment [3] shares this target. The experiment can be described thus: Inhibition of MIP-1alpha ligand of chemokine receptor 5 induced calcium signal in U-87-CCR5 cells by calcium mobilization assay. (In general: Calcium flux is commonly read through the fluorescence of an indicator in the cells.)
For experiment [4] the target is unchanged. Kind of experiment: Inhibition of RANTES co-receptor of chemokine receptor 5 induced calcium signal in U-87-CCR5 cells by calcium mobilization assay.

T1 sequence (P51681 whole entry): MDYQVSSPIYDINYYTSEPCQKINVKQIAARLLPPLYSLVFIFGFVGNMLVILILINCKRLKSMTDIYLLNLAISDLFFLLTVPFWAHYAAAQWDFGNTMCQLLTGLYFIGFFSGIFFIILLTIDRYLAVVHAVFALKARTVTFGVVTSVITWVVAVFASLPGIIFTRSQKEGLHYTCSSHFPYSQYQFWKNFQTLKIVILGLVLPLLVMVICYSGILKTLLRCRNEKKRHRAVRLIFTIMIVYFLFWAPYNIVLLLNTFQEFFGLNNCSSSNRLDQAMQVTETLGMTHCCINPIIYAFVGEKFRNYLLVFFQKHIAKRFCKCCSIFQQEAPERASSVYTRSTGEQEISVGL

As usually defined, the IC50 is the concentration that gives 50% inhibition. For `COc1ccc(/C=C/C(=O)OC(C)C(=O)[C@H]2C[C@@H]2[C@H](O)[C@H]2CC=CC(=O)O2)cc1` (some centres undefined), the IC50 in experiment [1] is 5.5 µM; in experiment [2] it was 8.7 µM; in experiment [3], more than 10 µM.
Consider `CC(OC(=O)/C=C/c1ccc(O)cc1)C(=O)[C@H]1C[C@@H]1[C@H](O)[C@H]1CC=CC(=O)O1` (some centres undefined), for which the figures for the IC50 in experiment [1], in experiment [3] and in experiment [4] were 7.2 µM, 10 µM and more than 10 µM, respectively.
On the same counts, the results for `COc1ccc(/C=C\C(=O)OC(C)C(=O)[C@H]2C[C@@H]2[C@H](O)[C@H]2CC=CC(=O)O2)cc1` (some centres undefined) are 6 µM, 8.8 µM and more than 10 µM.
